# PMC10584170, “Machine learning-based phenotypic imaging to characterise the targetable biology of Plasmodium falciparum male gametocytes for the development of transmission-blocking antimalarials” (PLOS Pathogens, 2023)
# How the values were obtained:
# [1] = system: P. falciparum male gametocytes; experiment: P. falciparum Dual Gamete Formation Assay (PfDGFA), male readout (exflagellation); type: cell-based, Plasmodium falciparum NF54
# Method in brief: (§1)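 Two sex-specific readouts come from one well: male exflagellation centres recorded by brightfield video right after activation, and female gametes scored by Cy3-anti-Pfs25 fluorescence after 24 h at 28°C.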
# [2] = system: calcium-dependent protein kinase 1 (PfCDPK1); conditions: enzymatic assay; cited from earlier work
# [3] = system: P. falciparum male gametocytes; experiment: PhIDDLI timecourse assay, compound added at timepoints after triggering male gametogenesis; type: cell-based, Plasmodium falciparum NF54
# Experimental: To gain greater understanding of their activity, selected molecules displaying different inhibition phenotypes in the initial screen were re-tested. Rather than subjecting gametocytes to a 24h preincubation prior to inducing gametogenesis, compounds were added at varying timepoints after triggering male gametogenesis. Samples were then fixed 20 min post-induction, imaged and analysed similarly using the PhIDDLI pipeline.
# Alternatively, if compound action over time was to be assessed, 1.5ml tubes with appropriate dilutions of test compounds were prepared for each timepoint. Gametogenesis was then triggered in the mature gametocyte culture with ookinete medium and temperature decrease from 37°C. At appropriate times, 200 μl of triggered culture was sampled and mixed with test compound. All samples were then allowed to continue gametogenesis and fixed as described previously with paraformaldehyde after 20 min (when a DMSO-treated sample could be expected to be exflagellating).
# 100 μl of the fixed cell suspensions were added to wells of a 24 well plate containing 1ml PBS and a poly-l-lysine-coated glass coverslip. Cells were allowed to settle and adhere to the coverslip overnight at 4°C before coverslips were transferred to a hydrophobic membrane (Parafilm) for immunofluorescence staining in a humidified, dark box. Cells were permeabilised with 0.1% Triton-X100 in PBS for 10 min before washing in PBS three times. Non-specific binding was blocked by incubating coverslips with PBS + 10% fetal bovine serum (FBS) (blocking buffer) for 1 h. Gametocytes and microgametes were visualised by labelling with an anti-alpha tubulin antibody (raised from chicken embryo brain tubulin but cross-reacts with many other species) (clone DM1A (Sigma)) 1:500 dilution in blocking buffer for 1 h, washed as before, and then stained with an anti-mouse Alexa488 secondary antibody (Thermo-Fisher) 1:1,000 dilution in blocking buffer for a further 1 h. After a final series of washes, the coverslips were mounted on glass slides with VectaShield mountant (Vector Laboratories) containing 4′,6-diamidino-2-phenylindole (DAPI) to visualise cellular DNA.
# All slides were imaged using a Nikon Ti fluorescence microscope using an x100 oil objective and 1.5x zoom. For each sample, tubulin-postive, DAPI-positive stained gametocytes/gametes were imaged at random. Z-stack images with 0.3μm slices were captured for each field of view and images deconvolved and transformed by maximum intensity projection within the Nikon NIS Elements software. Within raw images, cells were initially identified by an automated analysis pipeline developed in ICY Bioimage Analysis based upon the intensity of the tubulin staining captured which assigns a region of interest (ROI) around each cell. All ROIs were reviewed by a trained operator and adjusted if necessary to reflect the true outline of the cell (for example if two cells touching had been allocated the same ROI). Raw images contained between 1 and 8 extractable cells.
# Code for the PhIDDLI pipeline was written in Python 3.8 and executed by command line within a 64-bit Ubuntu virtual machine running within Oracle VM VirtualBox 6.1. […] Principle component analysis of compound phenotypes (Fig 5) was performed using ClustViz (https://biit.cs.ut.ee/clustvis/) using ln(x+1) transformation, and k-means clustering of the resultant PCA data was coded in R and executed in R Studio version 1.1.456 to identify optimum cluster using the elbow method.
# [4] = system: cyclin-dependent protein kinase 6 (PfPK6); parameters: method as in PMID 26934697; conditions: cited from earlier work
# HepG2 cells = experiment: HepG2 cytotoxicity counter-screen; conditions: mean of the HepG2 TOX50 values
# [5] = system: P. falciparum female gametocytes; experiment: P. falciparum Dual Gamete Formation Assay (PfDGFA), female readout (Pfs25-positive female gametes); type: cell-based, Plasmodium falciparum NF54
# Method in brief: as §1
smiles,measurement,setting,value
CNC(=O)c1ccccc1Nc1nc(Nc2ccc(N3CCN(C)CC3)nc2)ncc1C.Cl [TC11],Cytotox ratio Pf Male,[1],13.8
same,IC50,"[1]; this study, read-out: Pf DGFA IC50 MALE",250 nM
same,activity against recombinant PfCDPK1,[2],active
same,cells showing apparent DNA replication,"[3]; compound added concurrent with induction, fixed 20 min post-induction, DMSO control 61.4%",18.6%
same,effect on exflagellation,[3]; compound added concurrent with triggering male gametogenesis or 2 min later,substantially reduced
same,amounts of cells showing evidence of DNA replication,[3]; compound added during the first 2 min of male gametogenesis,markedly reduced
same,effect on exflagellation,[3]; compound added later than 2 min post-induction (up to 10 min),inhibited exflagellation
same,activity against recombinant PfPK6,[4],active
same,Mean TOX,HepG2 cells,3.44 µM
same,Cytotox ratio Pf Female,[5],0.344
